Reference: PMC5458547, “Discovery of first-in-class reversible dual small molecule inhibitors against G9a and DNMTs in hematological malignancies” (Nature Communications, 2017)
In brackets after ≈: the same amount, converted by molar mass.

How the values were obtained:
[1] = target: T1, JMJD2D (Homo sapiens, UniProt Q6B0I6); assay: Epigenetics selectivity panel (BPS Bioscience); assay type: biochemical
T1 construct: purchased DiscoverX KINOMEscan (kinases); BPS Bioscience (epigenetic targets)

[2] = tested on: LAL-CUN-2; assay: Cell proliferation assay (MTS); assay type: cell-based; settings: Homo sapiens; ALL, 48 h; read-out: GI50
[3] = target: T2, SET7-9 (Homo sapiens, UniProt Q8WTS6); assay: Epigenetics selectivity panel (BPS Bioscience); assay type: biochemical
T2 construct: purchased DiscoverX KINOMEscan (kinases); BPS Bioscience (epigenetic targets)
T2 sequence (Q8WTS6 whole entry): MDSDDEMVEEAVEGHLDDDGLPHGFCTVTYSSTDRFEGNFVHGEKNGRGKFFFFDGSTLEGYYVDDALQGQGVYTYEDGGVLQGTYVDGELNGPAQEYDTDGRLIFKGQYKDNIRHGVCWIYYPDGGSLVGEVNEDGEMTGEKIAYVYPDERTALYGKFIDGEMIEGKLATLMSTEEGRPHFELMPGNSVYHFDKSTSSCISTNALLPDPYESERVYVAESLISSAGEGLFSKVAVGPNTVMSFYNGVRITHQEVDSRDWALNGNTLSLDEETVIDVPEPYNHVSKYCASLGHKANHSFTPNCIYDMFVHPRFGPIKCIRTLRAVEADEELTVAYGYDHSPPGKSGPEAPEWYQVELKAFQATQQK

[4] = Kinetic solubility; assay type: physicochemical; settings: aqueous buffer, kinetic from dmso stock, pH 7.4, 50 mM phosphate buffer
Description: This study was conducted at Wuxi (http://www.wuxi.com/) at pH 7.4 (50 mM phosphate buffer). […]
The pH was adjusted to 7.40±0.05 using either 1 M sodium hydroxide or 1 M hydrochloric acid. Test compounds were diluted to 0.2 mM in DMSO and further diluted prior to testing to 10 µM in PBS, pH 7.4 (final 5% DMSO). The assay was performed using a 96-well multiscreen-IP PAMPA plate (Millipore, Cat. # MAIPN4510), whose PVDF membrane was pre-coated with 5 µL of 1% lecithin/dodecane mixture. 150 µL of PBS solution containing the test compounds were added to the donor chamber. Blank PBS (300 µL) was also added to the PTFE acceptor plate, and the donor and acceptor plates were assembled and incubated for 4 h at room temperature with shaking at 150 rpm. […]

[5] = tested on: MGH-U4; assay: Cell proliferation assay (MTS); assay type: cell-based; settings: Homo sapiens; Bladder
[6] = Liver microsomal stability; assay type: in vitro ADME; settings: mouse, mouse liver microsomes; read-out: Liver Microsomal Stability. Estimation T1/2
[7] = tested on: OCI-AML-2; assay: Cell proliferation assay (MTS); assay type: cell-based, human; settings: Homo sapiens, OCI-AML2; AML, 48 h; read-out: GI50
[8] = target: T3, cytochrome P450 1A2 (Homo sapiens, UniProt P05177); assay: CYP inhibition in human liver microsomes; assay type: in vitro ADME; settings: 10 µM
T3 construct: tissue BD Gentest; host or cells: human liver microsomes
T3 sequence (P05177 whole entry): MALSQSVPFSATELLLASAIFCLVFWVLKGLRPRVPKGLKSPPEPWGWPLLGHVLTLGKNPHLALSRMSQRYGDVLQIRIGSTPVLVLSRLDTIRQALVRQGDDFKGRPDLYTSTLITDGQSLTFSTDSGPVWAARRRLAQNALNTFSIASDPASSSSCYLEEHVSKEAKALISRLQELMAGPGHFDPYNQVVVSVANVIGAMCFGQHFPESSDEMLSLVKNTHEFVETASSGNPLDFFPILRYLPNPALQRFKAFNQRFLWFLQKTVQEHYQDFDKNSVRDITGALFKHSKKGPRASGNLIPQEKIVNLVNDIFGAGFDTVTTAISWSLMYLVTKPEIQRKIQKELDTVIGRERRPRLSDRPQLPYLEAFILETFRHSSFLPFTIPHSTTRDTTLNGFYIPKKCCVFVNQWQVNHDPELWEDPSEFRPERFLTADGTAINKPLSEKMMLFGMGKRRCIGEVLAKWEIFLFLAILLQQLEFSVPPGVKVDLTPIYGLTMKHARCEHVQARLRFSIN
Description: Positive control was obtained in the presence of the vehicle of the compounds. Negative control was obtained in the absence of HDAC enzyme activity. A best fit curve was fitted using GraphPad Prism 5 to derive the half maximal inhibitory concentration (IC50) from this curve. Results are the average of two […]
3A4) was evaluated in human liver microsomes at Wuxi (http://www.wuxi.com/). Test compounds (10 µM) and the corresponding substrates for each P450 isoform (20 µL) were incubated with 140 µL liver […]
reaction was terminated by adding 400 µL cold stop solution (200 ng/mL tolbutamide in ACN) and samples were centrifuged at 4000 rpm for 20 minutes. Supernatants were analyzed by LC-MS/MS (Shimadzu LC 20-AD - API 4000), using peak area ratio of analyte/internal standard. Test compounds and positive controls were tested in duplicates. The percentage of inhibition was calculated as the ratio of substrate metabolite detected in treated and non-treated wells.
This study was conducted by Equilibrium Dialysis at Wuxi (http://www.wuxi.com/). HT-Dialysis plate (Model HTD 96 b, Cat# 1006) and the dialysis membrane (molecular weight cut off 12-14 kDa, Cat# 1101) were purchased from HT Dialysis LLC (Gales Ferry, CT). Human plasma and CD-1 mouse plasma from Bioreclamation were thawed prior to experiment and the pH was adjusted at 7.4. […]
Results are the average of three replicates. […]

[9] = tested on: N417; assay: Cell proliferation assay (MTS); assay type: cell-based; settings: Homo sapiens, SCLC
[10] = tested on: HEL; assay: Cell proliferation assay (MTS); assay type: cell-based; settings: Homo sapiens, AML, 48 h
[11] = tested on: LOVO; assay: Cell proliferation assay (MTS); assay type: cell-based; settings: Homo sapiens, Colorectal
[12] = tested on: SEM cells; assay: Cell proliferation assay (MTS); assay type: cell-based; settings: Homo sapiens; ALL, 48 h
[13] = Maximum tolerated dose; settings: mouse, in vivo, iv
[14] = target: T4, JMJD2A (Homo sapiens, UniProt O75164); assay: Epigenetics selectivity panel (BPS Bioscience); assay type: biochemical
T4 construct: purchased DiscoverX KINOMEscan (kinases); BPS Bioscience (epigenetic targets)
T4 sequence (O75164 whole entry): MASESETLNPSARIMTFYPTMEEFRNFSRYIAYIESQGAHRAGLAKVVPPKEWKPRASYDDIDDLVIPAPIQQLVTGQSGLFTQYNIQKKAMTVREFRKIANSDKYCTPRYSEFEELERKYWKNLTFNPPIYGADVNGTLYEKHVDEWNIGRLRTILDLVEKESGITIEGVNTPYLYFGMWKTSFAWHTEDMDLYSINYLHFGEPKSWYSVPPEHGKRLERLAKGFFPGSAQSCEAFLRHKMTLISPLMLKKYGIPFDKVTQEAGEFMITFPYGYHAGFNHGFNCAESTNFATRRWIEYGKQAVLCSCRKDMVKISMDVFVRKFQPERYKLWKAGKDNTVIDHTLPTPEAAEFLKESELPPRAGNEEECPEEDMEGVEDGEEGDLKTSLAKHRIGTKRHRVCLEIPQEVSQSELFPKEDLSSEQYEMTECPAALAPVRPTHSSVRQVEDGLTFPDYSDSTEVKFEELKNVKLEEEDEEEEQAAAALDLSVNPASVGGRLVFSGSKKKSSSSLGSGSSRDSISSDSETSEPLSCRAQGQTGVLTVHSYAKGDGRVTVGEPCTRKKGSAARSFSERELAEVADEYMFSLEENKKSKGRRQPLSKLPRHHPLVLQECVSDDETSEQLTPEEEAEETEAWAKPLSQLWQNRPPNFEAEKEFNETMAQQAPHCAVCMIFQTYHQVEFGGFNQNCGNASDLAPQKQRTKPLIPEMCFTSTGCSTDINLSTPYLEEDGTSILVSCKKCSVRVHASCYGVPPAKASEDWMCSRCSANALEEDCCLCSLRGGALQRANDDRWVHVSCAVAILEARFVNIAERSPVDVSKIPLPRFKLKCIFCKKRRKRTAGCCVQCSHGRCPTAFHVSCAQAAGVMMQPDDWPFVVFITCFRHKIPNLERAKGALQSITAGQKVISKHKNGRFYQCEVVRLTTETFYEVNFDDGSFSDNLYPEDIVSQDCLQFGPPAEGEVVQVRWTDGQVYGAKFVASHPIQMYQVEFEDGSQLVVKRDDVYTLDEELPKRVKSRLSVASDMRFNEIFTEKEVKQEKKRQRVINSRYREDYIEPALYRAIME

[15] = target: T5, PRMT1 (Homo sapiens, UniProt Q99873); assay: Epigenetics selectivity panel (BPS Bioscience); assay type: biochemical
T5 construct: purchased BPS Bioscience (contract panel)
T5 sequence (Q99873 whole entry): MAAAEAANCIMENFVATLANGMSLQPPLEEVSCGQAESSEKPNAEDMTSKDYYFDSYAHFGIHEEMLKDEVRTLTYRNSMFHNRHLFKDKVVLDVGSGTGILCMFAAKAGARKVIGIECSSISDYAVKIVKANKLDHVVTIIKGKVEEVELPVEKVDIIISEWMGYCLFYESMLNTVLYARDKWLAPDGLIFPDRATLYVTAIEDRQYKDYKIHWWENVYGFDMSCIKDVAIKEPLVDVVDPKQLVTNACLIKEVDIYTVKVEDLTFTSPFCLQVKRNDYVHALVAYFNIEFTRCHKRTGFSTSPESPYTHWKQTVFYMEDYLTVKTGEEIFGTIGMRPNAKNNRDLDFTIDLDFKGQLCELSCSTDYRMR

[16] = tested on: MV4-11; assay: Cell proliferation assay (MTS); assay type: cell-based; settings: Homo sapiens, MV4-11; AML, 48 h; read-out: GI50
[17] = tested on: UM-UC-7; assay: Cell proliferation assay (MTS); assay type: cell-based; settings: Homo sapiens; Bladder
[18] = target: T6, PRMT8 (Homo sapiens, UniProt Q9NR22); assay: Epigenetics selectivity panel (BPS Bioscience); assay type: biochemical
T6 construct: purchased DiscoverX KINOMEscan (kinases); BPS Bioscience (epigenetic targets)
T6 sequence (Q9NR22 whole entry): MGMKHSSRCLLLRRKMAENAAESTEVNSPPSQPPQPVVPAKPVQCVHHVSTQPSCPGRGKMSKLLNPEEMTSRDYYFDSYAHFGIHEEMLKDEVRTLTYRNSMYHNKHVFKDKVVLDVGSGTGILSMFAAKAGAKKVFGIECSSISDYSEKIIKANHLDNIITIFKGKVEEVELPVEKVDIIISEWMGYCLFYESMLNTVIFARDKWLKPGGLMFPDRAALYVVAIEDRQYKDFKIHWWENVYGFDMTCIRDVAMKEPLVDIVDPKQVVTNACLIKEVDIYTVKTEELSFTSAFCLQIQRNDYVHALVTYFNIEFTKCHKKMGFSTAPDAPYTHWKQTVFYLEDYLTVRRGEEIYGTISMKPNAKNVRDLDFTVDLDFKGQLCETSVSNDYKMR

[19] = tested on: HCC95; assay: Cell proliferation assay (MTS); assay type: cell-based; settings: Homo sapiens, SCLC
[20] = tested on: 451-LU; assay: Cell proliferation assay (MTS); assay type: cell-based; settings: Homo sapiens, Melanoma
[21] = tested on: 697; assay: Cell proliferation assay (MTS); assay type: cell-based; settings: Homo sapiens; ALL, 48 h
[22] = target: T7, BRD2(BD1+BD2) (Homo sapiens, UniProt P25440); assay: Epigenetics selectivity panel (BPS Bioscience); assay type: binding
T7 construct: purchased DiscoverX KINOMEscan (kinases); BPS Bioscience (epigenetic targets)
T7 sequence (P25440 65-459 limits assumed): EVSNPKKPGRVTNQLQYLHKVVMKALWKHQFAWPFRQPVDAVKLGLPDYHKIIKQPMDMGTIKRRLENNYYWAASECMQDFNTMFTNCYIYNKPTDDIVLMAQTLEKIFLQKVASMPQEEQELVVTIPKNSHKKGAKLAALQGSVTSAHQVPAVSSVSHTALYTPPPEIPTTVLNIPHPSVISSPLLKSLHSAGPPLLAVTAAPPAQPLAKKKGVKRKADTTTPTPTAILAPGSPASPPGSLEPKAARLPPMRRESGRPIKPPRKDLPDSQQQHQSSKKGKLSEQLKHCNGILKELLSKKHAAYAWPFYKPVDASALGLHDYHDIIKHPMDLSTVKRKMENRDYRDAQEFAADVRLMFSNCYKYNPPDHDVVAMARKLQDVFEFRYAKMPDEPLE

T1 sequence (Q6B0I6 whole entry): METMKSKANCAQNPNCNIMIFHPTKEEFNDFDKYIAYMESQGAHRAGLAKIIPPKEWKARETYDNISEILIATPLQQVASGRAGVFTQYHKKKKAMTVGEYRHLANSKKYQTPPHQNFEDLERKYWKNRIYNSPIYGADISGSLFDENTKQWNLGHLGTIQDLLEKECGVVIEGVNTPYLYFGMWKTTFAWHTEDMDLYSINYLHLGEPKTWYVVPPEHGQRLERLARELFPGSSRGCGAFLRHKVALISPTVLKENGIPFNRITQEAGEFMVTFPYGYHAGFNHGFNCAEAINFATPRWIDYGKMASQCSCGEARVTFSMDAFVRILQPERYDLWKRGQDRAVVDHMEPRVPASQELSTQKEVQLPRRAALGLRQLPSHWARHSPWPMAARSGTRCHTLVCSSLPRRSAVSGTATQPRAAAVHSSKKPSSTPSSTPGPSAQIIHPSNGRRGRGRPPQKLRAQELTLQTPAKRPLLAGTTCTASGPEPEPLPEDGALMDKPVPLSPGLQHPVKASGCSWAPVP

| SMILES | inhibition at 10 µM [1] [%] | GI50 [2] [nM] | inhibition at 10 µM [3] [%] | solubility [4] [µg/mL] | GI50 [5] [nM] | half-life at 1 µM [6] [min] | GI50 [7] [nM] | P450s Inhibition: 1A2 [8] [%] | GI50 [9] [nM] | GI50 [10] [nM] | GI50 [11] [nM] | GI50 [12] [nM] | MTD [13] [mg/kg] | inhibition at 10 µM [14] [%] | inhibition at 10 µM [15] [%] | GI50 [16] [nM] | GI50 [17] [nM] | inhibition at 10 µM [18] [%] | GI50 [19] [nM] | GI50 [20] [nM] | other results |
| --- | --- | --- | --- | --- | --- | --- | --- | --- | --- | --- | --- | --- | --- | --- | --- | --- | --- | --- | --- | --- | --- |
| COc1cc2c(NC3CCN(C)CC3)cc(-c3ccc(C)o3)nc2cc1OCCCN1CCCC1 [CM-272, 6-methoxy-2-(5-methyl-2-furyl)-N-(1-methyl-4-piperidyl)-7-(3-pyrrolidin-1-ylpropoxy)quinolin-4-amine] | 5 | 664 | 3 | 118 (≈ 246 µM) | 725 | 35.2 | 256 | < 10 | 1320 | > 10000 | 1220 | 3320 | 2.5 | 1 | 73 | 269 | 964 | 11 | 751 | 378 | IC50 ([15]; BPS): 4000 nM; GI50 [21]: 913 nM; inhibition at 10 µM [22]: 0% |
| COc1cc2c(NCC3CCN(C)CC3)cc(-c3ccc(C)o3)nc2cc1OCCCN1CCCC1 [CM-579, 6-methoxy-2-(5-methyl-2-furyl)-N-[(1-methyl-4-piperidyl)methyl]-7-(3-pyrrolidin-1-ylpropoxy)quinolin-4-amine] | 25 | 365 | 0 | > 144 | 173 | 10.7 | 490 | < 10 | 409 | > 10000 | 297 | > 10000 | ≤ 1 | 30 | 43 | 385 | 531 | 12 | 613 | 69 | GI50 [21]: 4280 nM; inhibition at 10 µM [22]: 0% |
